Tests used:
[1] = test system: RSV (Group A, Long Strain); test: Antiviral (RSV) assay: cytopathetic effect (CPE) protection assay in HEp-2 cells, MTT readout; format: cell-based, human respiratory syncytial virus (RSV); details: human respiratory syncytial virus, HEp-2, 96 h
Protocol: HEp-2 cells and RSV (Group A, Long Strain) were obtained from the American Type Culture Collection (Manassas, Va.). A cytopathetic effect (CPE) protection assay was performed to determine the ability of a compound to protect the cells from viral infection and thus the CPE induced by viral infection. 96-well plates were first seeded with 3×10^3 HEp-2 cells per well in Dulbecco's modified Eagle's medium (DMEM) containing 10% fetal bovine serum (FBS). One day after the cells were seeded, they were preincubated with serial dilutions of compounds prepared in 100 μL assay medium (DMEM mixed with F12 medium at a 1:1 ratio, supplemented with 2% FBS and 1 mM sodium pyruvate) for 1 hour at 37° C. 100 μL of assay medium containing 0.2 multiplicity of infection (MOI) of RSV was then added to each well of cells. In addition to wells containing infected cells incubated with compounds, each plate also contained replicates of two kinds of controls: (1) Virus control contained cells infected with 0.2 MOI of RSV in assay medium, (2) Uninfected cell control contained cells incubated with assay medium only. After 4 days of incubation at 37° C., the viability of cells was assessed using MTT (Thiazolyl blue tetrazolium bromide, Sigma). A stock solution of MTT, at a concentration of 4 mg/mL in phosphate-buffered saline, was added to all wells at 25 μL per well. Plates were further incubated for 4 hours, and each well was then treated with 50 μL of a solution containing 20% sodium dodecyl sulfate (SDS) and 0.02 N HCl. After an overnight incubation, the plates were measured on a BioTek® microtiter plate reader at wavelengths of 570 nm and 650 nm. The MTT detection is based on the fact that viable (uninfected) cells can reduce the tetrazolium salts into colored formazan products, which can then be quantitated by spectrometry. […] Compounds were tested to determine both their antiviral and toxicity to determine their therapeutic window. Determination of the EC50 and TD50 of these active compounds were repeated one additional time to confirm the window.

[2] = test system: HEp-2 cells; test: Cytotoxicity (MTT) assay; format: cell-based; details: Table 2; uninfected HEp-2 cells, 4 days incubation, 50% toxicity dose
Protocol: A cytopathetic effect (CPE) protection assay was performed to determine the ability of a compound to protect the cells from viral infection and thus the CPE induced by viral infection. 96-well plates were first seeded with 3×10^3 HEp-2 cells per well in Dulbecco's modified Eagle's medium (DMEM) containing 10% fetal bovine serum (FBS). One day after the cells were seeded, they were preincubated with serial dilutions of compounds prepared in 100 μL assay medium (DMEM mixed with F12 medium at a 1:1 ratio, supplemented with 2% FBS and 1 mM sodium pyruvate) for 1 hour at 37° C. 100 μL of assay medium containing 0.2 multiplicity of infection (MOI) of RSV was then added to each well of cells. In addition to wells containing infected cells incubated with compounds, each plate also contained replicates of two kinds of controls: (1) Virus control contained cells infected with 0.2 MOI of RSV in assay medium, (2) Uninfected cell control contained cells incubated with assay medium only. After 4 days of incubation at 37° C., the viability of cells was assessed using MTT (Thiazolyl blue tetrazolium bromide, Sigma). A stock solution of MTT, at a concentration of 4 mg/mL in phosphate-buffered saline, was added to all wells at 25 μL per well. Plates were further incubated for 4 hours, and each well was then treated with 50 μL of a solution containing 20% sodium dodecyl sulfate (SDS) and 0.02 N HCl. After an overnight incubation, the plates were measured on a BioTek® microtiter plate reader at wavelengths of 570 nm and 650 nm. The MTT detection is based on the fact that viable (uninfected) cells can reduce the tetrazolium salts into colored formazan products, which can then be quantitated by spectrometry. Based on the spectrometric absorbance of each sample, the percent of protection from CPE, which is an indicator of protection from viral infection, can be calculated for each compound and the 50% effective concentrations (EC50) can be calculated using a nonlinear regression curve fitting equation provided by the GraphPad Prism® 4 software.
Cytotoxicity of the compounds was determined in experiments done in parallel with the antiviral assays. To do this, 100 μL of assay medium was added to the wells of HEp-2 cells pretreated with 100 μL serially diluted compounds as described above. After 4 days of incubation, the viability of the cells was determined by the MTT assay in the same way as detailed in the “Antiviral Assay” method. Results were expressed as 50% toxicity dose (TD50) values.
Compounds were tested to determine both their antiviral and toxicity to determine their therapeutic window. Determination of the EC50 and TD50 of these active compounds were repeated one additional time to confirm the window.

[3] = Table 1, 0.2 MOI RSV, 4 days incubation, protection from CPE
[4] = Table 2, 0.2 MOI RSV, 4 days, determination repeated to confirm window

| EC50 [1, 3] | EC50 [1, 4] | SMILES | MTT TD50 [2] |
| --- | --- | --- | --- |
| 23500 nM | 23500 nM | Cc1cc(NC2CCCCC2)nc(NCc2ccccn2)n1 [Example 4, N^4-cyclohexyl-6-methyl-N^2-(pyridin-2-ylmethyl)pyrimidine-2,4-diamine] | 39.00 µM |
| 250 nM | 150 nM | Cc1nc(NCc2ccccn2)nc(NC2CCCCC2)c1C [Example 1, N^4-cyclohexyl-5,6-dimethyl-N^2-(pyridin-2-ylmethyl)pyrimidine-2,4-diamine] | 23.00 µM |
| 2790 nM | 2790 nM | Cc1cc(NC2CCCCCC2)nc(NCc2ccccn2)n1 [Example 3, N^4-cycloheptyl-6-methyl-N^2-(pyridin-2-ylmethyl)pyrimidine-2,4-diamine] | 8.04 µM |
| 190 nM | – | Cc1nc(NCc2ccccn2)nc(NC2CCC(F)(F)C2)c1C (stereo not drawn) [Example 78, N^4-(3,3-difluorocyclopentyl)-5,6-dimethyl-N^2-(pyridin-2-ylmethyl)pyrimidine-2,4-diamine] | – |
| 240 nM | – | Cc1nc(NCc2ccccc2)nc(NC2CCCCC2)c1C [Example 5, N^2-benzyl-N^4-cyclohexyl-5,6-dimethylpyrimidine-2,4-diamine] | – |
| > 32000 nM | – | Cc1nc(NC(C)c2ccccn2)nc(NC2CCCCC2)c1C (stereo not drawn) [Example 87, N^4-cyclohexyl-5,6-dimethyl-N^2-[1-(pyridin-2-yl)ethyl]pyrimidine-2,4-diamine] | – |
| 61 nM | – | Cc1ccnc(CNc2nc(C)c(C)c(NC3CCC(F)(F)CC3)n2)c1 [Example 28, N^4-(4,4-difluorocyclohexyl)-5,6-dimethyl-N^2-[(4-methylpyridin-2-yl)methyl]pyrimidine-2,4-diamine] | – |
| 69 nM | – | Cc1nc(NCc2cccs2)nc(NC2CCCCC2)c1C [Example 22, N^4-cyclohexyl-5,6-dimethyl-N^2-(2-thienylmethyl)pyrimidine-2,4-diamine] | – |
| 190 nM | – | Cc1nc(NCc2ccccn2)nc(NC2CCCC(F)(F)C2)c1C (stereo not drawn) [Example 80, N^4-(3,3-difluorocyclohexyl)-5,6-dimethyl-N^2-(pyridin-2-ylmethyl)pyrimidine-2,4-diamine] | – |
| > 1500 nM | – | Cc1nc(NCc2ccc(OC(F)(F)F)cc2)nc(NC2CCCCC2)c1C [Example 10, N^4-cyclohexyl-5,6-dimethyl-N^2-[4-(trifluoromethoxy)benzyl]pyrimidine-2,4-diamine] | – |
| > 3700 nM | – | COc1ccc(CNc2nc(C)c(C)c(NC3CCCCC3)n2)cc1 [Example 8, N^4-cyclohexyl-N^2-(4-methoxybenzyl)-5,6-dimethylpyrimidine-2,4-diamine] | – |
| 220 nM | – | Cc1nc(NCc2ccccn2)nc(NC2CCC(F)(F)CC2)c1C [Example 32, N^4-(4,4-difluorocyclohexyl)-5,6-dimethyl-N^2-(pyridin-2-ylmethyl)pyrimidine-2,4-diamine] | – |
| > 3000 nM | – | Cc1nc(NCc2ccc(F)cc2)nc(NC2CCCCC2)c1C [Example 9, N^4-cyclohexyl-N^2-(4-fluorobenzyl)-5,6-dimethylpyrimidine-2,4-diamine] | – |

The remaining lines, values behind:

| SMILES | EC50 [1, 3] | EC50 [1, 4] | MTT TD50 [2] |
| --- | --- | --- | --- |
| Cc1nc(NCc2ccccn2)nc(Nc2ccccc2OC(F)(F)F)c1C [Example 59, 5,6-dimethyl-N^2-(pyridin-2-ylmethyl)-N^4-[2-(trifluoromethoxy)phenyl]pyrimidine-2,4-diamine] | 30 nM | – | – |
| Cc1ccccc1Nc1nc(NCc2ccccn2)nc(C)c1C [Example 67, 5,6-dimethyl-N^4-(2-methylphenyl)-N^2-(pyridin-2-ylmethyl)pyrimidine-2,4-diamine] | 7 nM | – | – |
| Cc1nc(NCc2ccccn2)nc(Nc2ccc(F)cc2F)c1C [Example 88, N^4-(2,4-difluorophenyl)-5,6-dimethyl-N^2-(pyridin-2-ylmethyl)pyrimidine-2,4-diamine] | 38 nM | – | – |
| Cc1cc(F)c(F)cc1Nc1nc(NCc2ccccn2)nc(C)c1C [Example 73, N^4-(4,5-difluoro-2-methylphenyl)-5,6-dimethyl-N^2-(pyridin-2-ylmethyl)pyrimidine-2,4-diamine] | 24 nM | – | – |
| CCC(CC)Nc1nc(NCc2ccccn2)nc(C)c1C [Example 48, 5,6-dimethyl-N^4-(pentan-3-yl)-N^2-(pyridin-2-ylmethyl)pyrimidine-2,4-diamine] | 270 nM | – | – |
| Cc1nc(NCc2ccccn2)nc(Nc2ccccc2)c1C [Example 52, 5,6-dimethyl-N^4-phenyl-N^2-(pyridin-2-ylmethyl)pyrimidine-2,4-diamine] | 270 nM | – | – |
| Cc1nc(NCc2ccccn2)nc(NC2CCOc3ccccc32)c1C (stereo not drawn) [Example 36, N^4-(3,4-dihydro-2H-chromen-4-yl)-5,6-dimethyl-N^2-(pyridin-2-ylmethyl)pyrimidine-2,4-diamine] | 530 nM | – | – |
| Cc1nc(NCc2ccccn2)nc(NC2CCc3ccccc32)c1C (stereo not drawn) [Example 33, N^4-(2,3-dihydro-1H-inden-1-yl)-5,6-dimethyl-N^2-(pyridin-2-ylmethyl)pyrimidine-2,4-diamine] | 180 nM | – | – |
| Cc1cccc(F)c1Nc1nc(NCc2ccccn2)nc(C)c1C [Example 72, N^4-(2-fluoro-6-methylphenyl)-5,6-dimethyl-N^2-(pyridin-2-ylmethyl)pyrimidine-2,4-diamine] | 78 nM | – | – |
| Cc1nc(NCc2ccccn2)nc(NC2CCCC(C)C2C)c1C (stereo not drawn) [Example 41, N^4-(2,3-dimethylcyclohexyl)-5,6-dimethyl-N^2-(pyridin-2-ylmethyl)pyrimidine-2,4-diamine] | 40 nM | – | – |
| Cc1nc(NCc2ccccn2)nc(Nc2ccc(Cl)cc2)c1C [Example 62, N^4-(4-chlorophenyl)-5,6-dimethyl-N^2-(pyridin-2-ylmethyl)pyrimidine-2,4-diamine] | 94 nM | – | – |
| Cc1ccccc1CNc1nc(NCc2ccccn2)nc2c1CCC2 [Example 2, N^4-(2-methylbenzyl)-N^2-(pyridin-2-ylmethyl)-6,7-dihydro-5H-cyclopenta[d]pyrimidine-2,4-diamine] | 2050 nM | 2050 nM | 7.17 µM |
| Cc1nc(NCc2ccccn2)nc(Nc2ccc(C(F)(F)F)cc2)c1C [Example 57, 5,6-dimethyl-N^2-(pyridin-2-ylmethyl)-N^4-[4-(trifluoromethyl)phenyl]pyrimidine-2,4-diamine] | 230 nM | – | – |
| Cc1nc(NCc2ccccn2)nc(Nc2ccc(OC(F)(F)F)cc2)c1C [Example 56, 5,6-dimethyl-N^2-(pyridin-2-ylmethyl)-N^4-[4-(trifluoromethoxy)phenyl]pyrimidine-2,4-diamine] | 400 nM | – | – |
| Cc1nc(NCc2ccccn2)nc(NC2CCCc3ccccc32)c1C (stereo not drawn) [Example 35, 5,6-dimethyl-N^2-(pyridin-2-ylmethyl)-N^4-(1,2,3,4-tetrahydronaphthalen-1-yl)pyrimidine-2,4-diamine] | 120 nM | – | – |

— patent US9447051B2, “Diaminopyrimidines and uses thereof” (AbbVie inc., priority 2012, dated 2016)
